In patent US4774381A, “Herbicide resistant tobacco” (E. I. Du Pont de Nemours and Company, priority 1985, dated 1988):

Columns and labels:
[1] = test system: homozygous mutant (S4) plants; experiment: Foliar spray whole plant test; format: in vivo, Nicotiana tabacum
Experimental: (§1) Further studies of the effect of the S4 mutation on whole plant response to chlorsulfuron were conducted with plants of the parental variety and progeny of homozygous mutant and homozygous normal isolates (Nos. 16 and 1, respectively) of the previously described backcross program. Accordingly, plants of the latter two types were derived, but separated by four generations, from the initial S4 mutant plant regenerated from callus culture.
(§2) Plants at the 4-5 leaf stage were treated with foliar sprays of an aqueous solution containing 10% (v/v) acetone, 0.2% polyoxyethylene sorbitan monolaurate (Tween 20 ), and 1,3, 10, 30 or 100 ppm chlorsulfuron. Each plant received 5 mL of a spray solution. Two weeks after treatment, plants were evaluated for phytotoxicity and shoot heights were measured. […] At this lowest level of application, apical buds and youngest leaves of these sensitive plants were chlorotic. […] These symptoms were more pronounced with increasing chlorsulfuron concentrations. […] In contrast, homozygous mutant plants were unaffected by treatment with chlorsulfuron, even at the highest test concentration of 100 ppm.

[2] = test system: parental and homozygous normal plants; experiment: Foliar spray whole plant test; format: in vivo, Nicotiana tabacum; conditions: 5 mL spray
Experimental: as §1, §2

[3] = target: T1, acetolactate synthase (ALS), H1 extract (Nicotiana tabacum, UniProt P09114); experiment: ALS activity assay in cell extracts; format: biochemical
T1 construct: ALS activity was then assayed in extracts prepared from these cell suspension cultures; endogenous in cells; host or cells: N. tabacum cv; Xanthi cell suspension cultures (H1 parental haploid line; +/+ segregants), 0-50% ammonium sulfate fraction of the extract
T1 sequence (P09114 92-664): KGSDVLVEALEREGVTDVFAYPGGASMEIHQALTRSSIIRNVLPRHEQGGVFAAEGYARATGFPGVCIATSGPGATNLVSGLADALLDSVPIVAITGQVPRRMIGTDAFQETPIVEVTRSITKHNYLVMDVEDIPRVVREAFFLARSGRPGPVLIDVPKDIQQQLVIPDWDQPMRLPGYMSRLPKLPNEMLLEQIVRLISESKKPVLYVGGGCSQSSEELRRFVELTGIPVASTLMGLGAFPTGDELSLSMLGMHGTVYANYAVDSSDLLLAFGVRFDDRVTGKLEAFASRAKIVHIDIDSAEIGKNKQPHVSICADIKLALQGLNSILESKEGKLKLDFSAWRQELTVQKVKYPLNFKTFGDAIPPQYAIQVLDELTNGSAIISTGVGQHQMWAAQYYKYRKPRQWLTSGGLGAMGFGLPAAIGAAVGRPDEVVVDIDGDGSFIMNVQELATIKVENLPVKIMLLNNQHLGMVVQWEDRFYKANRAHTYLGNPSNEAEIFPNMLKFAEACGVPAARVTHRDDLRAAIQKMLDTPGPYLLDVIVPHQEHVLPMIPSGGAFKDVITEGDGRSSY
Experimental: Cell suspension cultures of normal (H1) and homozygous mutant (Isolate 16) cell lines were washed in C1 liquid medium. After washing, cells were extracted in a 100 mM potassium phosphate buffer (pH 7.5) containing 0.5 mM MgCl2, 1 mM sodium pyruvate, 0.5 mM thiamine pyrophosphate, 10 micromolar flavine-adenine dinucleotide (FAD) and 10 percent (by volume) glycerol. Polyclar AT (BDH Chemicals Ltd) was added to a final concentration of 250 mg per gram fresh weight of tissue. After centrifugation at 27,000xg for 15 minutes at 4°, an equal volume of a saturated solution of amminium sulfate was added to the supernatant fraction. The resultant precipitate (representing a 0 to 50 percent ammonium sulfate fraction) was redissolved in 100 mM potassium phosphate buffer (pH 7.5) containing 0.5 mM MgCl2, 1 mM sodium pyruvate, and salts were removed by passage through a Sephadex G-25 (Pharmacia PD-10) column.
ALS activity was assayed in a total volume of 500 microliters containing 100 microliters of the column eluate, 65 mM potassium phosphate buffer (pH 7.5) containing 10 mM MgCl2, 40 mM sodium pyruvate, 250 micromolar thiamine pyrophosphate, 23 micromolar FAD, and 1, 5, 10, 50, 100, 500 or 1000 ppb chlorsulfuron or sulfometuron-methyl. After incubation at 30° for 90 minutes, 250 microliters of 6N H2 SO4 was added to each assay tube, and the tubes were incubated at 55° for 10 minutes to terminate the enzymatic reaction and achieve complete conversion of acetolactate to acetoin. Acetoin content was then measured by a modification of the procedure described by Westerfield, J. Biol. Chem. 161:495 (1945). To each tube was added sequentially 100 microliters 50 percent NaOH, 150 microliters 0.5 percent creatine, and 150 microliters 5 percent alpha-napthol (in 2.5N NaOH). Color development was accelerated by incubation at 55° for 10 minutes. Tubes were then centrifuged, and the optical density was read at 530 nm. Background optical densities, which were subtracted from the optical density values of the reactions, were determined for each extract from parallel assays to which the enzyme extract was added after the addition of 6N H2 SO4. Protein concentrations were measured with Bio-Rad Protein Assay reagent with bovine serum albumin as a standard. Data points and specific activities, which are set forth below and in FIG. 2, represent the average values of at least three independent determinations. ALS activities are presented in FIG. 2 as percent activity in the absence of herbicide.

## COc1nc(C)nc(NC(=O)NS(=O)(=O)c2ccccc2Cl)n1 [Chlorsulfuron, chlorsulfuron]
[1]; homozygous state
  increase of resistance of plants by S4 mutation: at least 100 fold
[1]; up to highest test concentration of 100 ppm chlorsulfuron
  phytotoxicity two weeks after foliar spray: unaffected
[2]; 1 ppm chlorsulfuron, 4-5 leaf stage
  phytotoxicity two weeks after foliar spray: developed symptoms of phytotoxicity
[2]; 3 ppm chlorsulfuron
  phytotoxicity two weeks after foliar spray: chlorosis was more severe and growth retardation readily apparent
[2]; 100 ppm chlorsulfuron
  phytotoxicity two weeks after foliar spray: extreme growth inhibition, chlorosis, and necrosis
[3]; 10 ppb, Isolate H1 (+), read-out: Uninhibited activity (%) in the Presence of Chlorsulfuron
  remaining ALS activity (% of uninhibited) at 0.01 ppm: 40%
[3]; 30 ppb, Isolate H1 (+), read-out: Uninhibited activity (%) in the Presence of Chlorsulfuron
  remaining ALS activity (% of uninhibited) at 0.03 ppm: 23%
[3]; 100 ppb, Isolate H1 (+), read-out: Uninhibited activity (%) in the Presence of Chlorsulfuron
  remaining ALS activity (% of uninhibited) at 0.1 ppm: 18%
[3]; H1 cell line extract, read-out: concentration inhibiting ALS activity 50 percent (converted)
  IC50: ~14 nM
